Active and inactive are the calls of the source. The calls are words filed in the database; no cut-off is given here.
What was measured:
[1] = biological target: T1, Protein cereblon/Serine/threonine-protein kinase PLK4 (Homo sapiens, UniProt O00444+Q96SW2); experiment: Protac activity at CRBN/PLK4 in human MCF7 cells at 1 uM incubated for 48 hrs by Western blot analysis; assay type: cell-based
[2] = biological target: T1, Protein cereblon/Serine/threonine-protein kinase PLK4; experiment: Protac activity at CRBN/PLK4 in human MCF7 cells at 10 uM incubated for 48 hrs by Western blot analysis; assay type: cell-based
MCF7 [3] = experiment: Antiproliferative activity against human MCF7 cells measured at 4 to 8 days interval by cell counting analysis; assay type: functional, cell-based; details: time 4-8 day
[4] = biological target: T1, Protein cereblon/Serine/threonine-protein kinase PLK4; experiment: Protac activity at CRBN/PLK4 in human MCF7 cells at 1 uM by Western blot analysis; assay type: cell-based
[5] = biological target: T1, Protein cereblon/Serine/threonine-protein kinase PLK4; experiment: Protac activity at CRBN/PLK4 in human MCF7 cells at 1 uM in presence of MG132 by Western blot analysis; assay type: cell-based
[6] = biological target: T2, Serine/threonine-protein kinase PLK4 (Homo sapiens) (UniProt O00444); experiment: Inhibition of PLK4 in human MCF7 cells assessed as reduction in FBXW5 inactivation by Western blot analysis; assay type: cell-based; details: dose 1-1000 nM
T2 sequence (whole entry): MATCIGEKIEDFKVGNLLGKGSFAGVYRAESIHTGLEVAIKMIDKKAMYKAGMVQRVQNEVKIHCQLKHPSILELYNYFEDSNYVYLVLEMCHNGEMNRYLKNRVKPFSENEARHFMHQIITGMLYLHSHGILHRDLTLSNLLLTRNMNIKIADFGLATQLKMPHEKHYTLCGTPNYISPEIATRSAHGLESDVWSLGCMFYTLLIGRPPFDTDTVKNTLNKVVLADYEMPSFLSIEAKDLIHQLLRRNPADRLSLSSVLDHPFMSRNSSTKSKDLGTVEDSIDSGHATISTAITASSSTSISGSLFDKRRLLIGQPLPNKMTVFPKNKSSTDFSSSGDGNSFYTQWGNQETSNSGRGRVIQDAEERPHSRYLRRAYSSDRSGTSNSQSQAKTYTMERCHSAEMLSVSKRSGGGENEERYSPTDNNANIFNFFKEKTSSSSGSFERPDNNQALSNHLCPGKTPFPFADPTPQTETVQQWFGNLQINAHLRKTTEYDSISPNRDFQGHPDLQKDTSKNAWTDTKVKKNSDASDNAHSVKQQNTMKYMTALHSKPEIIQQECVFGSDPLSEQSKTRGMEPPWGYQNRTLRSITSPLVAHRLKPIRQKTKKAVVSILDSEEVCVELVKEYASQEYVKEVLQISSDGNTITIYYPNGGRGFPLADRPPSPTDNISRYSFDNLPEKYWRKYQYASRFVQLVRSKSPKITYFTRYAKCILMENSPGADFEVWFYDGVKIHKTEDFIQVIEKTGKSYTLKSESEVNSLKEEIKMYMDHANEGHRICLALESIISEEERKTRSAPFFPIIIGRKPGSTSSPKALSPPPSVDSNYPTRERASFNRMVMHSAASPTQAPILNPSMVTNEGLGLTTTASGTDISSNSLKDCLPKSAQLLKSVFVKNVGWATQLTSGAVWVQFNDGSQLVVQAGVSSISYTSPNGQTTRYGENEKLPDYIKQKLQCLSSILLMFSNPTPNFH

MCF7 [7] = experiment: Inhibition of colony formation in human MCF7 cells incubated for 14 days by crystal violet staining based assay; assay type: functional, cell-based; details: dose 0.05-1 µM, time 14.0 day
MCF7 [8] = experiment: Induction of cell cycle arrest at G2 phase in human MCF7 cells at 0.3 to 3 uM incubated for 36 hrs by Annexin V-FITC//propidium iodide staining based flow cytometry analysis; assay type: functional
MCF7 [9] = experiment: Induction of cell senescence in human MCF7 cells assessed by increase SA-beta-Gal positive cells at 2 uM measured after 48 hrs; assay type: functional, cell-based
MCF7 [10] = experiment: Inhibition of human MCF7 cells migration at 0.1 to 1 uM by inverted microscopic analysis; assay type: functional, cell-based; details: dose 0.1-1 µM, time 48.0 hrs, TDE = time-dependent effect
[11] = Stability in human plasma assessed as compound remaining at 100 uM after 10 mins by LC-MS/MS analysis (reference value: 100%); assay type: ADME, cell-free; details: read-out: Stability
[12] = Stability in human plasma assessed as compound remaining at 100 uM after 30 mins by LC-MS/MS analysis (reference value: 100%); assay type: ADME, cell-free; details: read-out: Stability
[13] = Stability in human plasma assessed as half life at 100 uM after 120 mins by LC-MS/MS analysis; assay type: ADME, cell-free
[14] = Metabolic stability in mouse liver microsomes assessed as compound remaining at 100 uM incubated for 60 mins in presence of NADPH by LC-MS/MS analysis; assay type: ADME, Microsome; details: read-out: Stability
[15] = Metabolic stability in rat liver microsomes assessed as compound remaining at 100 uM incubated for 60 mins in presence of NADPH by LC-MS/MS analysis; assay type: ADME, Microsome; details: read-out: Stability
[16] = Metabolic stability in human liver microsomes assessed as compound remaining at 100 uM incubated for 60 mins by LC-MS/MS analysis; assay type: ADME, Microsome; details: read-out: Stability
CYP2C9 = CYP2C9 (Homo sapiens, UniProt P11712); experiment: Inhibition of CYP2C9 in human liver microsomes at 10 uM using sulfaphenazole as substrate preincubated for 10 mins followed by NADPH regenerating system addition and measured after 15 mins by LC-MS/MS analysis relative to control; assay type: ADME, Microsome; details: time 25 min
Sequence of CYP2C9 (P11712 whole entry): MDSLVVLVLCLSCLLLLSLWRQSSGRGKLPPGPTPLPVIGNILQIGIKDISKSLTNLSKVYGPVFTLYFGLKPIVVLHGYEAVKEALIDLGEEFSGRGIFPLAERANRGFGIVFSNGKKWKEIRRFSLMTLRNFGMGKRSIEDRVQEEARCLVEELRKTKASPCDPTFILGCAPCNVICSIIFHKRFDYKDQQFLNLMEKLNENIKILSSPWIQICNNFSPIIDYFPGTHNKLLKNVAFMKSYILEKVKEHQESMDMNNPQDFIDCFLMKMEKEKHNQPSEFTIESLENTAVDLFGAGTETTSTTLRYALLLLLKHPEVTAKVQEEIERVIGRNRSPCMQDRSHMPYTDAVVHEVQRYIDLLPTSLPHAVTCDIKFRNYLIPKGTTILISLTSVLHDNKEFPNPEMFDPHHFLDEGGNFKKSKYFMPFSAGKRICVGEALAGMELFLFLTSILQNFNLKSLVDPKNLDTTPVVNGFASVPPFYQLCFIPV

CYP2D6 = experiment: Inhibition of CYP2D6 in human liver microsomes at 10 uM using quinidine as substrate preincubated for 10 mins followed by NADPH regenerating system addition and measured after 15 mins by LC-MS/MS analysis relative to control; assay type: ADME, Microsome; details: time 25 min
[17] = AUClast in ICR mouse at 20 mg/kg, ip measured upto 24 hrs by LC-M/MS analysis; assay type: ADME, organism-based; design: dose 20 mg/kg, time < 24 hrs, route ip; details: in vivo
[18] = Observed AUC infinity in ICR mouse at 2 mg/kg, iv measured upto 24 hrs by LC-M/MS analysis; assay type: ADME, organism-based; design: time < 24 hrs, dose 2 mg/kg, route iv; details: in vivo
[19] = Half life in ICR mouse at 2 mg/kg, iv measured upto 24 hrs by LC-M/MS analysis; assay type: ADME, organism-based; details: in vivo
[20] = Half life in ICR mouse at 20 mg/kg, ip measured upto 24 hrs by LC-M/MS analysis; assay type: ADME, organism-based; details: in vivo
[21] = Observed volume of distribution at steady state in ICR mouse at 2 mg/kg, iv measured upto 24 hrs by LC-M/MS analysis; assay type: ADME, organism-based; details: in vivo, read-out: Vdss
[22] = Observed mean […] time infinity in ICR mouse at 2 mg/kg, iv measured upto 24 hrs by LC-M/MS analysis; assay type: ADME, organism-based; details: in vivo
[23] = Toxicity in nu/nu mouse xenografted with human MCF7 cells assessed as effect on heart at 20 mg/kg, ip administered once every other day for 21 days by HE staining based analysis; assay type: organism-based; details: in vivo, 504 h, time 21 day
Mus musculus = experiment: In vivo induction of PLK degradation in human MCF7 cells xenografted in nu/nu mouse at 20 mg/kg, ip administered once every other day for 21 days by western blotting analysis; assay type: functional, organism-based; details: time 21.0 day
MCF7 [24] = experiment: Antitumor activity against human MCF7 cells xenografted in nu/nu mouse assessed as reduction in Ki-67 at 20 mg/kg,ip administered once every other day for 21 days by immunohistochemical analysis; assay type: functional, organism-based; details: time 21.0 day

T1 sequence (Q96SW2 whole entry, looked up, one chain of several): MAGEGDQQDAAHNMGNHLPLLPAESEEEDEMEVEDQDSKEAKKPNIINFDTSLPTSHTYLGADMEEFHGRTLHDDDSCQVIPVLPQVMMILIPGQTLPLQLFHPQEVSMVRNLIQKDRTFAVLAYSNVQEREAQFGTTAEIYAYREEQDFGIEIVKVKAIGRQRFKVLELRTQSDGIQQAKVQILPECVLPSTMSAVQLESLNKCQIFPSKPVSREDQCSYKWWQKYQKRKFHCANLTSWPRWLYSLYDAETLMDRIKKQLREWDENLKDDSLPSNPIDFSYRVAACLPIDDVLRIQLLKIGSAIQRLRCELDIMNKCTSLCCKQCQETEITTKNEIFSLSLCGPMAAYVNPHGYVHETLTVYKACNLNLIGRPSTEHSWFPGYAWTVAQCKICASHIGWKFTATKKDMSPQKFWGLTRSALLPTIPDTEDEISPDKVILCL

## Cc1cc(Nc2nc(NCc3ccc(F)cc3F)nc3c2cnn3C2CCN(C(=O)C3CCN(c4ccc5c(c4)C(=O)N(C4CCC(=O)NC4=O)C5=O)CC3)CC2)n[nH]1 (configuration not stated)
[1]
  Activity: 73.4%
[2]
  Activity: 83.5%
MCF7 [3]
  Activity: Active
[4]
  Activity: Active
[5]
  Activity: Active
[6]
  inhibition: Dose-Dependent Effect
MCF7 [7]
  inhibition: Dose-Dependent Effect
MCF7 [8]
  Activity: Dose-Dependent Effect
MCF7 [9]
  Activity: Active
MCF7 [10]
  inhibition: Tde
[11]
  remaining at 10 min, 100 µM: 93.9%
[12]
  remaining at 0.5 h, 100 µM: 96.6%
[13]
  half-life at 100 µM: > 2 h
[14]
  remaining at 1 h, 100 µM: 56.4%
[15]
  remaining at 1 h, 100 µM: 51.5%
[16]
  remaining at 1 h, 100 µM: 97.3%
CYP2C9
  inhibition at 0.25 h, 10 µM: 32.5%
CYP2D6
  inhibition at 0.25 h, 10 µM: 5.6%
[17]
  AUC(0-t) at 24 h: 14000 ng·h/mL
[18]
  AUC(0-inf): 956 ng·h/mL
[19]
  half-life: 5.34 h
[20]
  half-life: 4.66 h
[21]
  Vd: 16.3 L/kg
[22]
  Time: 2.29 h
[23]
  Activity: Non-Toxic
Mus musculus
  inhibition: Active
MCF7 [24]
  inhibition: Active

From ChEMBL document CHEMBL5338818, “Discovery of the First Potent, Selective, and In Vivo Efficacious Polo-like Kinase 4 Proteolysis Targeting Chimera Degrader for the Treatment of TRIM37-Amplified Breast Cancer” (J Med Chem, 2023)
